Reference: paper PMC10692721, “Drug discovery for heart failure targeting myosin-binding protein C” (The Journal of Biological Chemistry, 2023)
“Also recorded” adds a separate entry of the source. Where a name gives a salt, the structure may show the parent alone.

How the values were obtained:
[1] = system: FMAL-actin/TMR-cC0-C2 interaction; test: FLT-FRET concentration-response assay, FMAL-actin plus TMR-cC0-C2; format: binding, human; settings: for effect on FLT-FRET / binding between FMAL-actin and TMR-cC0-C2 (in words): unphosphorylated cC0-C2; for specificity of FLT-FRET effect for unphosphorylated over phosphorylated cC0-C2: effect on cC0-C2 compared to phosphorylated cC0-C2 (Tables 1 and 2)
Protocol: (§1) Compounds identified as initial hits were further examined to determine the concentration–response curves for seven conditions ([1]): FMAL-actin alone identified actin-binding compounds that alter the FLT of FMAL-actin ([2]).
(§2) Fluorescence lifetime (FLT) measurements were acquired using a high-throughput FLT plate reader (Fluorescence Innovations, Inc) ([14], [27]), provided by Photonic Pharma LLC. […] The observed waveforms were analyzed as described previously ([15], [28]).
(§3) The primary hits were dissolved in DMSO to make a 10 mM stock solution, which was serially diluted in 96-well mother plates. Hits were screened at eight concentrations (0.5–100 μM). […] Compounds (1 μl) were transferred from the mother plates into 384-well plates using a Mosquito HV liquid handler (TTP Labtech Ltd, Hertfordshire, UK). The same procedure of dispensing as for the pilot screening was applied in the concentration-response assays. Concentration dependence of the FLT-FRET (E/EDMSO) or FLT-TMR (Δτ) change data was fit to a Hill equation only under certain conditions to help guide the eye (Fig. 4).

[2] = system: FMAL-actin/TMR-fC1-C2 interaction; test: FLT-FRET concentration-response assay, FMAL-actin plus TMR-fC1-C2; format: binding
Protocol: as §1, §2, §3

[3] = system: FMAL-actin plus TMR-cC0-C2; test: Selleck library HTS, 473 nm excitation (FLT of FMAL-actin with TMR-cC0-C2, FLT-FRET); format: binding, human; settings: for 473-nm Δτ, Repeat 1 / 473-nm Δτ, Repeat 2: initial screen, 30 μM compound; for 473-nm z-score (based on avg Δτ): robust z-score, hit threshold ±4, 30 μM compound
Procedure, shortened: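 Donor fluorescence lifetime was then recorded. Waveforms were fit to a single exponential, and ΔFLT was obtained after a moving-median plate-gradient correction (half-row window), rescaled by the median DMSO lifetime.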

TMR-cC0-C2 = test: Selleck library HTS, 532 nm excitation (FLT of TMR-cC0-C2 in presence of FMAL-actin); format: binding, human; settings: for 532-nm Δτ, Repeat 1 / 532-nm Δτ, Repeat 2: initial screen, 30 μM compound; for 532-nm z-score (based on avg Δτ): robust z-score, hit threshold ±4, 30 μM compound
[4] = system: rabbit fast skeletal (psoas) myofibrils; test: Skeletal myofibril ATPase assay; format: biochemical; settings: 50 μM compound; for effect on skeletal MF ATPase activity (in words): pCa 8 to pCa 4
Protocol: Rabbit psoas and bovine cardiac myofibrils were prepared as described in our previous study ([17]). An enzyme-coupled, NADH-linked ATPase assay was used to measure skeletal and cardiac myofibril ATPase activity in 96-well microplates at 23 °C. Ionic strength was maintained below 0.2 M, so myofilaments remained insoluble and stable ([32]). To achieve optimal enzymatic activities, buffers for skeletal and cardiac myofibrils differed slightly ([33], [34]): skeletal in 50 mM MOPS, 100 mM KCl, 5 mM MgCl2, 1 mM EGTA, pH 7.0; cardiac in 20 mM MOPS, 35 mM NaCl, 5 mM MgCl2, 1 mM EGTA, pH 7.0. Each well in the microplate contained an assay mix of 0.84 mM phosphoenolpyruvate, 0.17 mM NADH, 10 U/vol pyruvate kinase, 20 U/vol lactate dehydrogenase. The concentration of free Ca^2+ was controlled by EGTA buffering ([35]). Myofibrils were dispensed in microplates with a multichannel pipette and were incubated with assay mix plus compound of interest for 20 min at 23 °C. The concentration of myofibrils used was 0.01 mg/ml for skeletal and 0.05 mg/ml for cardiac myofibrils. The assay was started upon the addition of ATP, at a final concentration of 2.1 mM (total volume to 200 μl), and absorbance was recorded at 340 nm in a SpectraMax Plus microplate spectrophotometer from Molecular Devices. The steady-state myofibrillar ATPase rate was measured from NADH oxidation, measured as the rate of decrease in absorption at 340 nm for 30 min, with absorption data collected every 15 s. All data and statistical analysis of steady-state kinetics were conducted with the OriginPro program. The results were fitted with the Hill equation:(6) V=V0+(Vmax/1+10^−n∗^(pCa50−pCa)) where V is the ATPase rate and n is the Hill coefficient.
ATPase activity is reported on the μmol ATP/mg protein/min scale. Average data are presented as mean ± SD. Sample means are derived from three different myofibril preps (N = 3), each done in duplicate (n = 6).
The effects of compounds on ATPase activity of myofibrils were determined in the presence of 50 μM compound, across a 12-point pCa range from 4.0 (activation) to 8.0 (relaxation). The calcium sensitivity (pCa50) was determined by fitting the curves to the Hill equation. In all experiments, a 1% DMSO-only control was included. The normalized ATPase activity of the selected compounds can be found in Figure 6.

[5] = system: TMR-cC0-C2 (C0-C2 fragment of human cMyBP-C); test: FLT-TMR concentration-response assay (FLT of TMR on cC0-C2, no actin); format: binding; settings: for cC0-C2/cC0-C2#P (ratio of FLT changes) / cC0-C2 FLT change (% change from DMSO, FLT of TMR-MyBP-C): 60 μM compound; for effect on FLT of TMR-cC0-C2 (in words): concentration-response, no actin
Procedure, shortened: (§4)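 Hits tested at eight concentrations (0.5–100 μM) and read on a high-throughput fluorescence lifetime plate reader. Hill fits applied only under certain conditions.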

[6] = system: PKA-phosphorylated TMR-cC0-C2 (cC0-C2#P); test: FLT-TMR concentration-response assay, PKA-phosphorylated cC0-C2; format: binding, human; settings: for cC0-C2#P FLT change (% change from DMSO, FLT of TMR-MyBP-C): 60 μM compound
Procedure, shortened: as §4

[7] = system: TMR-fC1-C2 (C1-C2 of fast skeletal MyBP-C); test: FLT-TMR concentration-response assay, fC1-C2; format: binding; settings: for cC0-C2/fC1-C2 (ratio of FLT changes) / fC1-C2 FLT change (% change from DMSO, FLT of TMR-MyBP-C): 60 μM compound; for effect on FLT of TMR-fC1-C2 (in words): concentration-response, no actin
Procedure, shortened: as §4

Compound	473-nm Δτ, Repeat 1 [3] [ns]	473-nm Δτ, Repeat 2 [3] [ns]	473-nm z-score (based on avg Δτ) [3]	532-nm Δτ, Repeat 1 (TMR-cC0-C2) [ns]	532-nm Δτ, Repeat 2 (TMR-cC0-C2) [ns]	532-nm z-score (based on avg Δτ) (TMR-cC0-C2)	effect on skeletal MF ATPase activity (in words) [4]	cC0-C2/cC0-C2#P (ratio of FLT changes) [5]	cC0-C2 FLT change (% change from DMSO, FLT of TMR-MyBP-C) [5] [%]	cC0-C2#P FLT change (% change from DMSO, FLT of TMR-MyBP-C) [6] [%]	cC0-C2/fC1-C2 (ratio of FLT changes) [7]	fC1-C2 FLT change (% change from DMSO, FLT of TMR-MyBP-C) [7] [%]	effect on FLT-FRET / binding between FMAL-actin and TMR-cC0-C2 (in words) [1]	further results
CO/N=C(\C(=O)N[C@@H]1C(=O)N2C(C(=O)O)=C(C[N+]3(C)CCCC3)CS[C@H]12)c1csc(N)n1 [Cefepime dihydrochloride monohydrate]	0.127	0.102	6.43	0.006	-0.096	-2.70	affected ATPase	–	–	–	–	–	–	effects on actin binding (FRET) ([1]; range over cC0-C2, phosphorylated cC0-C2 and fC1-C2): 13–35%; reduction in actin binding (fC1-C2-actin FRET) ([2]; skeletal MyBP-C): 13%
NC(=O)c1cc[n+](CC2=C(C(=O)O)N3C(=O)[C@@H](NC(=O)[C@@H](c4ccccc4)S(=O)(=O)[O-])[C@H]3SC2)cc1 [Cefsulodin sodium]	0.394	0.316	19.91	0.114	0.083	6.07	affected ATPase	1.1	9.1	8.1	0.8	11.5	–	effect on skeletal MF ATPase activity (in words) ([4]; listed as Cefsoludin sodium): affected
C#Cc1cccc(Nc2ncnc3cc(OCCOC)c(OCCOC)cc23)c1 [Erlotinib]	0.026	0.001	0.78	0.100	0.119	6.74	affected; also recorded: affect skeletal muscle ATPase	1.0	9.8	9.7	1.2	8.5	decrease	effect on FLT of TMR-cC0-C2 (in words) [5]: increases; also recorded: affect; effect on FLT of PKA-phosphorylated TMR-cC0-C2 (in words) ([6]; concentration-response, no actin): increases; effect on FLT of TMR-fC1-C2 (in words) [7]: increases
C[C@@H](O)[C@H]1C(=O)N2C(C(=O)[O-])=C(S[C@@H]3CN[C@H](C(=O)Nc4cccc(C(=O)O)c4)C3)[C@H](C)[C@H]12.[Na+] [Ertapenem sodium]	0.353	0.231	16.37	0.079	0.157	7.23	marked increase in ATPase activity at pCa 8; also recorded: affected ATPase	1.3	10.2	8.0	0.8	12.2	–	effect on Ca^2+-sensitivity of skeletal MF ATPase (in words) [4]: altered Ca^2+ sensitivity
O=C(Nc1cccc2c(=O)cc(-c3nnn[nH]3)oc12)c1ccc(OCCCCc2ccccc2)cc1 [Pranlukast]	0.061	0.008	1.95	0.073	0.116	5.80	affected	0.6	30.7	50.1	0.6	50.3	–	effect on skeletal MF ATPase activity (in words) ([4]; listed as Pranleukast): affected ATPase
CCCCC(=O)N(Cc1ccc(-c2ccccc2-c2nnn[nH]2)cc1)[C@H](C(=O)O)C(C)C [Valsartan]	0.149	0.058	5.83	0.000	0.013	0.44	–	–	–	–	–	–	decreased	specificity of FLT-FRET effect for unphosphorylated over phosphorylated cC0-C2 [1]: stronger reduction of FRET with non-phosphorylated than phosphorylated; effect on FLT-FRET / binding between FMAL-actin and TMR-fC1-C2 (in words) [2]: decreased
Sacubitril/valsartan [Sacubitril/valsartan (LCZ696)]	0.140	0.095	6.60	-0.025	0.012	-0.37	–	–	–	–	–	–	decreased	effect on FLT of TMR-cC0-C2 (in words) [5]: do not affect; effect on FLT of TMR-fC1-C2 (in words) [7]: do not affect; specificity of FLT-FRET effect for unphosphorylated over phosphorylated cC0-C2 [1]: stronger reduction of FRET with non-phosphorylated than phosphorylated; effect on FLT-FRET / binding between FMAL-actin and TMR-fC1-C2 (in words) [2]: decreased
